Values quoted from earlier work as cited in patent US20110077278A1, “Antifungal compositions and methods” (Troy Corporation, priority 2009, published 2011).

Legend:
[1] = in metal working fluids; BBIT compared with IPBC; reported by US 6,861,395
certain fungi = conditions: BBIT in the presence of sodium omadine and certain fungi; US 6,861,395

## CCCCn1sc2ccccc2c1=O [BBIT, 2-n-butyl-1,2-benzisothiazolin-3-one]
[1]
  stability to high temperature storage: considerably more stable to high temperature storage than IPBC
Certain fungi
  synergy: exhibits synergy in the presence of sodium omadine and certain fungi
